Test results published in article PMC10779102, “Structural Studies of Klebsiella pneumoniae Fosfomycin-Resistance Protein and Its Application for the Development of an Optical Biosensor for Fosfomycin Determination” (International Journal of Molecular Sciences, 2023).

Key:
FosAKP = biological target: T1, FosAKP (Klebsiella pneumoniae, UniProt A0A086IRG1); assay: DTNB ([…] nm) activity assay; crystal structure of complex ([…] Å); type: biochemical; conditions: read-out: % inhibition at 5 mM
T1 construct: gene fosA
T1 sequence (A0A086IRG1 entry or part of it): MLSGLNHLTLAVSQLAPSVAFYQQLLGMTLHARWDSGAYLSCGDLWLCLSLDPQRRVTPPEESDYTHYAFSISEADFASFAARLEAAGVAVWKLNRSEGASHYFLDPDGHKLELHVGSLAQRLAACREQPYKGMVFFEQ

[1] = system: C[C@@H]1O[C@@H]1P(=O)(O)O; assay: purified protein; type: biochemical, Klebsiella pneumoniae; conditions: free enzyme, 15 mM GSH, 0.1 M sodium phosphate pH 8, 100 mM KCl, 0.05 mM MnCl2, 25 °C, also bound in active site of crystal structure
FosAPA = biological target: T2, FosAPA (Pseudomonas aeruginosa, UniProt Q9I4K6); assay: DTNB ([…] nm) assay of GSH conjugation, time course; type: biochemical; conditions: 10 mM Fos, 15 mM GSH, 0.1 M sodium phosphate pH 8, 100 mM KCl, 0.05 mM MnCl2, 25 °C
T2 construct: gene fosA
T2 sequence (Q9I4K6 whole entry): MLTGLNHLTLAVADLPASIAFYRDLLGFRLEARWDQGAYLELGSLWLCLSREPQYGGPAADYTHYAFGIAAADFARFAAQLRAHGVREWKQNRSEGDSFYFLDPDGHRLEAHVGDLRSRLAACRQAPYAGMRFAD

O=C(O)C(O)C(O)C(=O)O (stereo not drawn) [Tar]
inhibition at 5000 µM (FosAKP): 20.7%

FosAKP (Klebsiella pneumoniae)
Km [1]: 2200 ± 300 µM

C[C@@H]1O[C@@H]1P(=O)(O)O [Fosfomycin, (1R,2S)-epoxypropylphosphonic acid]
DTNB (412 nm) assay of GSH conjugation, time course (FosAPA): time course of Fos conjugation with GSH, catalyzed by FosAPA and FosAKP
